Laboratory results as given in patent US20110105349A1, “USE OF A MONOPHOSPHATE ESTER OF A PHTHALEIN COMPOUND AS A SUBSTRATE FOR TARTRATE-RESISTANT ACID PHOSPHATASE B5 (TRAP 5B)” (MUNODIAGNOSTIC SYSTEMS LIMITED, priority 2008, published 2011).

Experiments:
TRAP5b [1] = settings: cited from earlier work
TRAP5b [2] = assay: Activity with phthalein monophosphate esters at 0.47 mg/mL, pH 7.4 (Example 8); format: biochemical, human; design: 5b Activity: unit not given here; settings: 0.47 mg/mL in 100 mM MES pH7.4
Protocol: (§1) To test for activity towards PTMP, 100 μL of a solution containing 6 mg/mL PTMP dissolved in 125 mM MOPS buffer, pH 7.0 was added per well and incubated for 0-40 min at 37° C. The reactions were stopped at the times indicated by the addition of 50 μL per well of 1M glycine/NaOH, pH11 and the absorbance at […] was measured. To test for activity towards TTMP, 100 μL of a solution containing 5 mg/mL TTMP dissolved in 80 mM MOPS buffer, 10% ethanol, pH 7.0 was added per well and incubated for 0-40 min at 37° C. The reactions were stopped at the times indicated by the addition of 50 μL per well of 0.25 M NaOH and the absorbance at […] was measured.
(§2) Where phthalein monophosphate esters were not available commercially, the monophosphate esters were prepared by the method of Bulbenko & Woodbridge (U.S. Pat. No. 4,045,290) by reaction of the appropriate phthalein compound (from Sigma-Aldrich) with phosphorus oxychloride (CAS 10025-87-3), followed by hydrolysis and purification. The monophosphate esters were further purified before use by HPLC chromatography to remove un-reacted phthalein dye. HPLC column 10 mm×150 mm ACE 5 C18 (Advance Chromatography Technologies, UK), load solvent composition, 30% methanol and 70% water containing 0.1% trifluoroacetic acid (TFA); product was eluted by a gradient from 30% methanol 0.1% TFA to 100% methanol 0.1% TFA at 3 mL/minute over 45 minutes.
(§3) Phthalein monophosphate esters prepared in Example 7 were diluted to 0.47 mg/mL in 100 mM MES pH7.4 buffer and applied to an assay as in Example 1.

TRAP5a = biological target: T1, TRAP5a (Homo sapiens, UniProt P13686); assay: as above; format: biochemical; design: unit not given beside the values; settings: 0.47 mg/mL in 100 mM MES pH7.4
T1 construct: Serum-derived TRAP5a and TRAP5b were separated by ion exchange chromatography; from tissue; host or cells: human serum
T1 sequence (P13686 22-325): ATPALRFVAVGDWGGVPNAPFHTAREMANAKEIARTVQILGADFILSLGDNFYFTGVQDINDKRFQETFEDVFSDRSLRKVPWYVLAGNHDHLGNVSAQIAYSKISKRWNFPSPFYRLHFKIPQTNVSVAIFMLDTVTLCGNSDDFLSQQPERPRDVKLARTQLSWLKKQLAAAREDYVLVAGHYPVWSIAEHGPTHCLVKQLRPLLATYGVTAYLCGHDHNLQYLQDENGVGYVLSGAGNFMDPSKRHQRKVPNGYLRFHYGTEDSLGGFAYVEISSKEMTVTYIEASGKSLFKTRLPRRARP
Protocol: as §1, §2, §3

Row | SMILES | relative activity for TRAP 5b over TRAP 5a compared with WO1999/050662 (TRAP5b [1]; EP 1598670) [×] | pH optimum of TRAP5b (TRAP5b [1]; WO1999/050662 (pNPP), EP1598670 (2-chloro-4-nitrophenylphosphate)) [pH] | 5b Activity (TRAP5b [2]) | Ratio of 5b:5a activity (TRAP5b [2]) | 5a Activity (TRAP5a)
1 | O=[N+]([O-])c1ccc(OP(=O)(O)O)c(Cl)c1 [2-chloro-4-nitrophenylphosphate] | 0.8 | 6.4 |  |  | 
2 | Cc1c(C2(c3cc(Br)c(OP(=O)(O)O)c(Br)c3C)OS(=O)(=O)c3ccccc32)cc(Br)c(O)c1Br (centres unmarked) [Bromocresol Green, Bromocresol Green monophosphate] |  |  | 0.2636 | 73.2 | 0.0036
3 | Cc1cc(C2(c3cc(C)c(OP(=O)(O)O)c(Br)c3)OS(=O)(=O)c3ccccc32)cc(Br)c1O (centres unmarked) [Bromocresol Purple, Bromocresol Purple monophosphate] |  |  | 0.4755 | 64.3 | 0.0074
4 | O=P(O)(O)Oc1ccc(C2(c3ccc(O)c(Cl)c3)OS(=O)(=O)c3ccccc32)cc1Cl (centres unmarked) [Chlorophenol Red, Chlorophenol Red monophosphate] |  |  | 0.3558 | 53.1 | 0.0067
